Laboratory results reported in patent publication US11912679B2, “Aryl alkynamide derivatives” (Astellas Pharma, Inc., priority 2022, dated 2024).

The molecules below were run on IRF pathway of THP-1 (assay: Test on the activity of IRF pathway of THP-1 (THP1-Dual reporter cells stimulated with 2'3'-cGAMP)). Conditions: Homo sapiens, PMA-treated, 2'3'-cGAMP 5 ug/mL, QUANTI-Luc readout, read-out: IC50 of inhibition of the activity of IRF pathway.
Format: cell-based
Procedure: 0.3 uM of PMA (phorbol myristate acetate, SIGMA, P1585) was added to THP1-Dual™ cells (NF-κB-SEAP IRF-Luc Reporter Monocytes, Invivogen, thpd-nfis), and the cells were cultured at 37° C. for 1 day in RPMI1640 with 10% Fetal Bovine Serum (FBS). A compound with a known concentration was added, and the cells were incubated at room temperature for 1 hour. Mammalian (non-canonical) CDN, cyclic [G(2′,5′)pA(3′,5′)p] (2′3′-cGAMP, Invivogen, tlrl-nacga23) was added to a final concentration of 5 ug/mL, and the cells were cultured at 37° C. On the following day, QUANTI-Luc™ (Secreted luciferase detection medium, Invivogen, rep-qlc) was added to the culture solution and the activity of IRF pathway was measured using a microplate reader. The inhibition ratio at each concentration was determined, where the activity of IRF pathway with no addition of the test compound or 2′3′-cGAMP was defined as 100% inhibition and the activity of IRF pathway with no addition of the test compound and with addition of 2′3′-cGAMP was defined as 0% inhibition. The IC50 value was calculated by sigmoid […] model non-linear regression analysis.

IC50 [nM]	SMILES
70	O=C(C#Cc1ccc(-c2ccccc2)c(C(F)(F)F)c1)N1CCS(=O)(=O)CC1CO (racemic) [Example 128, rac-(3R)-3-(hydroxymethyl)-4-{3-[2-(trifluoromethyl)[1,1′-biphenyl]-4-yl]prop-2-ynoyl}-1λ^6-thiomorpholine-1,1-dione]
13400	CN1CCN(C(=O)C#Cc2ccccc2-c2ccccc2)CC1 [Example 1, 3-([1,1′-biphenyl]-2-yl)-1-(4-methylpiperazin-1-yl)prop-2-yn-1-one]
155	CN1CCN(C(=O)C#Cc2ccc(-c3ccccc3)c(C(F)(F)F)c2)CC1 [Example 3]
236	CN1CCN(C(=O)C#Cc2ccc(-c3ccccc3)cn2)CC1 [Example 4]
950	CN1CCN(C(=O)C#Cc2ccc(-c3ccccc3)nc2)CC1 [Example 5]
4820	CN1CCN(C(=O)C#Cc2cnn(-c3ccccc3)c2C(F)(F)F)CC1 [Example 6]
2060	CN1CCN(C(=O)C#Cc2cn(-c3ccccc3)nc2C(F)(F)F)CC1 [Example 7]
7750	CN1CCN(C(=O)C#Cc2ccc(-n3cccn3)cc2)CC1 [Example 8]
116	O=C(C#Cc1ccc(-c2ccccc2)c(C(F)(F)F)c1)N1CC(O)(CO)C1 [Example 9]
182	O=C(C#Cc1ccc(-c2ccccc2)c(C(F)(F)F)c1)N[C@H]1COC[C@@H]1O [Example 10]
146	O=C(C#Cc1ccc(-c2ccccc2)c(C(F)(F)F)c1)N[C@@H]1CCNC1=O [Example 11]
385	O=C(C#Cc1ccc(-c2ccccc2)c(C(F)(F)F)c1)N[C@H]1CCNC1=O [Example 12]
1540	O=C(C#Cc1ccc(-c2ccccc2)c(C(F)(F)F)c1)N1CCN(C2CC2)CC1 [Example 13]
374	O=C(C#Cc1ccc(-c2ccccc2)c(C(F)(F)F)c1)N1CCN(C2COC2)CC1 [Example 14]
237	CC(C)N1CCN(C(=O)C#Cc2ccc(-c3ccccc3)c(C(F)(F)F)c2)CC1 [Example 15]
229	O=C(C#Cc1ccc(-c2ccccc2)c(C(F)(F)F)c1)N1CCN(C2CCS(=O)(=O)C2)CC1 (stereo not shown) [Example 16]
233	O=C(C#Cc1ccc(-c2ccccc2)c(C(F)(F)F)c1)N[C@@H]1COC[C@H]1O [Example 17]
1410	O=C(C#Cc1ccc(C2=CCOCC2)c(C(F)(F)F)c1)N1C[C@@H](O)[C@@H](O)C1 [Example 18]
1390	CN1CCN(C(=O)C#Cc2ccc(-c3ccccc3)cc2)CC1 [Example 19]
244	NC(=O)[C@@H]1CCN(C(=O)C#Cc2ccc(-c3ccccc3)c(C(F)(F)F)c2)C1 [Example 20, (3R)-1-{3-[2-(trifluoromethyl)[1,1′-biphenyl]-4-yl]prop-2-ynoyl}pyrrolidine-3-carboxamide]
295	O=C(C#Cc1ccc(-c2ccccc2)c(C(F)(F)F)c1)N1CCOCC1 [Example 21]
210	O=C(C#Cc1ccc(-c2ccccc2)c(C(F)(F)F)c1)N1CCSCC1 [Example 22]
91	NC(=O)[C@H]1CCCN1C(=O)C#Cc1ccc(-c2ccccc2)c(C(F)(F)F)c1 [Example 23]
121	NC(=O)[C@@H]1CCCN1C(=O)C#Cc1ccc(-c2ccccc2)c(C(F)(F)F)c1 [Example 24]
158	NC(=O)[C@@H]1[C@@H](O)CCN1C(=O)C#Cc1ccc(-c2ccccc2)c(C(F)(F)F)c1 [Example 25]
299	O=C(C#Cc1ccc(-c2ccccc2)c(C(F)(F)F)c1)N1CCC(O)(CO)CC1 [Example 26]
216	NC(=O)[C@H]1CCN(C(=O)C#Cc2ccc(-c3ccccc3)c(C(F)(F)F)c2)C1 [Example 27]

IC50 [nM]	SMILES
95	NC(=O)[C@@H]1C[C@H](O)CN1C(=O)C#Cc1ccc(-c2ccccc2)c(C(F)(F)F)c1 [Example 28]
153	CN(CC(N)=O)C(=O)C#Cc1ccc(-c2ccccc2)c(C(F)(F)F)c1 [Example 29]
159	NS(=O)(=O)CCNC(=O)C#Cc1ccc(-c2ccccc2)c(C(F)(F)F)c1 [Example 30]
115	CS(=O)(=O)NCCNC(=O)C#Cc1ccc(-c2ccccc2)c(C(F)(F)F)c1 [Example 31]
178	CS(=O)(=O)NCCCNC(=O)C#Cc1ccc(-c2ccccc2)c(C(F)(F)F)c1 [Example 32]
195	NC(=O)N1CCN(C(=O)C#Cc2ccc(-c3ccccc3)c(C(F)(F)F)c2)CC1 [Example 37]
88	O=C(C#Cc1ccc(-c2ccccc2)c(C(F)(F)F)c1)N1CCS(=O)(=O)CC1 [Example 38]
351	O=C(C#Cc1ccc(-c2ccccc2)c(C(F)(F)F)c1)NC(CO)CO [Example 39]
422	O=C(C#Cc1ccc(-c2ccc(OC(F)(F)F)cc2)c(C(F)(F)F)c1)NC[C@@H](O)CO [Example 40]
792	O=C(C#Cc1ccc(-c2ccc(OC(F)(F)F)cc2)c(C(F)(F)F)c1)NC[C@H](O)CO [Example 41]
158	O=C(C#Cc1ccc(-c2ccccc2)c(C(F)(F)F)c1)N1CC(O)C1 [Example 42]
89	NC(=O)[C@H](CO)NC(=O)C#Cc1ccc(-c2ccccc2)c(C(F)(F)F)c1 [Example 45, N^2-{3-[2-(trifluoromethyl)[1,1′-biphenyl]-4-yl]prop-2-ynoyl}-L-serinamide]
277	O=C(C#Cc1cnc(-c2ccccc2)c(C(F)(F)F)c1)N1C[C@@H](O)[C@@H](O)C1 [Example 47, 1-[(3R,4S)-3,4-dihydroxypyrrolidin-1-yl]-3-[6-phenyl-5-(trifluoromethyl)pyridin-3-yl]prop-2-yn-1-one]
91	O=C(C#Cc1ccc(-c2ccccc2)c(C(F)(F)F)c1)N(CCO)c1ccccc1 [Example 48]
231	NC(=O)CNC(=O)C#Cc1ccc(-c2ccccc2)c(C(F)(F)F)c1 [Example 49]
48	NS(=O)(=O)c1cccc(NC(=O)C#Cc2ccc(-c3ccccc3)c(C(F)(F)F)c2)c1 [Example 50]
184	O=C(C#Cc1ccc(-c2ccccc2)c(C(F)(F)F)c1)N(CCO)C1CCOCC1 [Example 51]
442	O=C(C#Cc1ccc(-c2ccccc2)c(C(F)(F)F)c1)N(CCO)C1CC1 [Example 52]
550	CC(C)N(CCO)C(=O)C#Cc1ccc(-c2ccccc2)c(C(F)(F)F)c1 [Example 53]
66	COc1ccc(N(CCO)C(=O)C#Cc2ccc(-c3ccccc3)c(C(F)(F)F)c2)cn1 [Example 54]
83	Cn1cc(N(CCO)C(=O)C#Cc2ccc(-c3ccccc3)c(C(F)(F)F)c2)cn1 [Example 55]
256	O=C(C#Cc1ccc(-c2cccc(OC(F)F)c2)c(C(F)(F)F)c1)N1C[C@H](O)[C@@H](O)C1 [Example 56]
381	O=C(C#Cc1ccc(-c2cccc(OC(F)F)c2)c(C(F)(F)F)c1)N[C@H]1COC[C@@H]1O [Example 57]
441	O=C(C#Cc1ccc(-c2cccc(OC(F)F)c2)c(C(F)(F)F)c1)N[C@@H]1COC[C@H]1O [Example 58]
444	O=C(C#Cc1ccc(-c2ccccc2)c(C(F)(F)F)c1)N[C@@H]1COC[C@@H]1O [Example 59]
528	O=C(C#Cc1ccc(-c2ccccc2)c(C(F)(F)F)c1)N[C@H]1COC[C@H]1O [Example 60]
611	O=C(C#Cc1ccc(-c2ccc(OC(F)F)cc2)c(C(F)(F)F)c1)N1C[C@@H](O)[C@H](O)C1 [Example 61]

SMILES	IC50 [nM]
CN1CCN(C(=O)C#Cc2cccc(-c3ccccc3)c2)CC1 [Example 2]	1090
